Experimental data as given in patent US9376391B2, “Difluoromethyl-nicotinic-tetrahydronaphthyl carboxamides as fungicides” (BAYER CROPSCIENCE AKTIENGESELLSCHAFT, priority 2012, dated 2016).

Assays:
[1] = log P by HPLC on reversed phase columns (EEC directive 79/831 Annex V.A8); format: physicochemical; conditions: HPLC/LC-MS at pH 2.7, 0.1% formic acid in water / acetonitrile, gradient 10% to 95%
Puccinia recondita = assay: In vivo preventive test on Puccinia recondita (brown rust on wheat); conditions: wheat, spray, graded 12 days after contamination vs control plants
Protocol: In Vivo Preventive Test on Puccinia recondita (Brown Rust on Wheat) […] Wheat plants (“Scipion” variety), sown in starter cups on a 50/50 peat soil-pozzolana substrate and grown at 22° C., are treated at the 1-leaf stage (10 cm height) by spraying with the active ingredient prepared as described above. Plants, used as controls, are treated with the mixture of acetone/tween/DMSO/water not containing the active material. After 24 hours, the plants are contaminated by spraying the leaves with an aqueous suspension of Puccinia recondita spores (100 000 spores per ml). The spores are collected from an infected plant and are suspended in water containing 2.5 ml/1 of Tween 80 at 10%. The contaminated wheat plants are incubated for 24 hours at 20° C. and at 100% relative humidity, and then for 10 days at 20° C. and at 70-80% relative humidity. Grading (% of efficacy) is carried out 12 days after the contamination, in comparison with the control plants.

Uromyces appendiculatus = assay: In vivo preventive test on Uromyces appendiculatus (bean rust); conditions: preventive spray, bean plants, grading 11 days after contamination
Protocol: In Vivo Preventive Test on Uromyces appendiculatus (Bean Rust) […] Bean plants (“Saxa” variety), sown in starter cups on a 50/50 peat soil-pozzolana substrate and grown at 24° C., are treated at the 2-leaf stage (9 cm height) by spraying with the active ingredient prepared as described above. Plants, used as controls, are treated with the mixture of acetone/tween/DMSO/water not containing the active material. After 24 hours, the plants are contaminated by spraying the leaves with an aqueous suspension of Uromyces appendiculatus spores (150 000 spores per ml). The spores are collected from infected plants and are suspended in water containing 2.5 ml/1 of Tween 80 at 10%. The contaminated bean plants are incubated for 24 hours at 20° C. and at 100% relative humidity, and then for 10 days at 20° C. and at 70-80% relative humidity. Grading (% of efficacy) is carried out 11 days after the contamination, in comparison with the control plants.

[2] = Table 2, amines of formula (III-a)

Compound | logP^[a] ([1]; Table 1, formula (I)) | Eff. % (Puccinia recondita; dose 500 ppm) | also measured
CC(C)C1Cc2c(NC(=O)c3ccc(Cl)nc3C(F)F)cccc2C1(C)C (racemic) [Example 45] | 4.77^[a] | 89% | Eff. % (Uromyces appendiculatus; 500 ppm): 88%
CC1CC(C)(C)c2cccc(NC(=O)c3ccc(Cl)nc3C(F)F)c21 (racemic) [Example 18] | 3.99^[a] | 89% | –
CC1(C)CC(C(F)F)c2c(N)cccc21 (stereo not drawn) [III-a-9] | – | – | logP^[a] [1, 2]: 2.75^[a]
CCCCON=C1CC(C)c2c(NC(=O)c3cc(C)cnc3C(F)F)cccc21 (racemic) [Example 53] | 3.46^[a] | – | –
CCON=C1CC(C)c2c(NC(=O)c3cc(C)cnc3C(F)F)cccc21 (racemic) [Example 50] | 2.99^[a] | 94% | Eff. % (Uromyces appendiculatus; 500 ppm): 100%
CC1CC(C)(C)c2cccc(NC(=O)c3cc(Cl)cnc3C(F)F)c21 (racemic) [Example 55] | 4.06^[a] | 72% | –
CC(C)CC1CCc2c(NC(=O)c3cccnc3C(F)F)cccc21 (racemic) [Example 41] | 3.94^[a] | 98% | Eff. % (Uromyces appendiculatus; 500 ppm): 100%
CCC1Cc2c(NC(=S)c3cc(C)cnc3C(F)F)cccc2C1(C)C (stereo not drawn) [Example 70, 2-(difluoromethyl)-N-(2-ethyl-1,1-dimethyl-2,3-dihydro-1H-inden-4-yl)-5-methylpyridine-3-carbothioamide] | – | – | chromatographic logP ([1]; reversed phase HPLC columns, Table 1, formula (I)): 4.41; Eff. % (Puccinia recondita; dose 100 ppm): 98%; Eff. % (Uromyces appendiculatus; 100 ppm): 100%
Cc1cnc(C(F)F)c(C(=O)Nc2cccc3c2C(C)CC32CC2)c1 (racemic) [Example 54] | 3.31^[a] | – | –
CC(C)(C)CC1CC(C)(C)c2cccc(N)c21 (stereo not drawn) [III-a-6] | – | – | logP^[a] [1, 2]: 4.98^[a]
Cl.Nc1cccc2c1C(=C(Cl)Cl)CC2 [III-a-3] | – | – | logP^[a] [1, 2]: 3.42^[a]
CC1CC(C)(C)c2c(F)ccc(NC(=O)c3ccc(Cl)nc3C(F)F)c21 (stereo not drawn) [Example 19] | 4.09^[a] | 100% | Eff. % (Uromyces appendiculatus; 500 ppm): 79%
CC1CC2(CC2)c2cccc(NC(=O)c3ccc(Cl)nc3C(F)F)c21 (racemic) [Example 58] | 3.73^[a] | 81% | Eff. % (Uromyces appendiculatus; 500 ppm): 95%
Cc1cnc(C(F)F)c(C(=O)Nc2cccc3c2C(C)CC3(C)C)c1 (stereo not drawn) [Example 21] | 3.55^[a] | 72% | Eff. % (Uromyces appendiculatus; 500 ppm): 88%
CC(C)(C)CC1CCc2cccc(N)c21.Cl (stereo not drawn) [III-a-8] | – | – | logP^[a] [1, 2]: 4.04^[a]
CON=C1CC(C)c2c(NC(=O)c3cc(C)cnc3C(F)F)cccc21 (stereo not drawn) [Example 29] | 2.61^[a] | – | –
Cc1cnc(C(F)F)c(C(=O)Nc2cccc3c2C(C)C(C)C3(C)C)c1 (stereo not drawn) [Example 35] | 3.79^[a] | 93% | –
Cc1cnc(C(F)F)c(C(=O)Nc2cccc3c2CC(C(C)C)C3(C)C)c1 (racemic) [Example 44] | – | 83% | Eff. % (Uromyces appendiculatus; 500 ppm): 93%
CCC1(CC)OC(C)c2c(NC(=O)c3cc(C)cnc3C(F)F)cccc21 (stereo not drawn) [Example 26] | 3.15^[a] | – | –
CC1OC(C)(C)c2cccc(NC(=O)c3ccc(Cl)nc3C(F)F)c21 (racemic) [Example 24] | 2.77^[a] | 89% | Eff. % (Uromyces appendiculatus; 500 ppm): 100%
CC1CC(C)(C)c2c(Cl)ccc(NC(=O)c3cccnc3C(F)F)c21 (stereo not drawn) [Example 16] | 3.73^[a] | – | –
Cc1cnc(C(F)F)c(C(=O)Nc2cccc3c2CC(C)(C)C3)c1 [Example 48] | 3.35^[a] | – | –
CC1CC(=C(Cl)Cl)c2cccc(N)c21.Cl (stereo not drawn) [III-a-4] | – | – | logP^[a] [1, 2]: 3.60^[a]
CC1(C)CC(C(Cl)Cl)c2c(N)cccc21 (stereo not drawn) [III-a-7] | – | – | logP^[a] [1, 2]: 4.39^[a]
CON=C1CCc2c(NC(=O)c3cccnc3C(F)F)cccc21 [Example 5] | 2.15^[a] | – | –
CC1CC(C)(C)c2ccc(F)c(N)c21 (stereo not drawn) [III-a-10] | – | – | logP^[a] [1, 2]: 3.71^[a]
CC1(C)OCc2c(NC(=O)c3cccnc3C(F)F)cccc21 [Example 17] | 2.01^[a] | 100% | Eff. % (Uromyces appendiculatus; 500 ppm): 100%
CCON=C1CCc2c(NC(=O)c3cccnc3C(F)F)cccc21 [Example 8] | 2.54^[a] | 78% | –
CC1CC(C)(C)c2cccc(NC(=O)c3c(C(F)F)ccnc3C(F)F)c21 (stereo not drawn) [Example 28] | 3.79^[a] | – | –
Cc1cnc(C(F)F)c(C(=O)Nc2cccc3c2C(C)OC3(C)C)c1 (stereo not drawn) [Example 22] | 2.37^[a] | 83% | –

Now from value to compound, other results behind:

logP^[a] ([1]; Table 1, formula (I)) | Compound | Eff. % (Puccinia recondita; dose 500 ppm) | also measured
3.52^[a] | CCC1OC(CC)(CC)c2cccc(NC(=O)c3cc(C)cnc3C(F)F)c21 (racemic) [Example 72] | – | –
3.79^[a] | CCCC1CC(C)c2c(NC(=O)c3cccnc3C(F)F)cccc21 (stereo not drawn) [Example 89] | – | –
4.39^[a] | CCC1(CC)Cc2c(NC(=O)c3cc(C)cnc3C(F)F)cccc2C1C (stereo not drawn) [Example 61] | 78% | –
3.71^[a] | CC1CC(=CCl)c2cccc(NC(=O)c3cccnc3C(F)F)c21 (stereo not drawn) [Example 98] | – | –
3.09^[a] | CCC1OC(C)(C)c2cccc(NC(=O)c3ccc(Cl)nc3C(F)F)c21 (racemic) [Example 74] | – | Eff. % (Puccinia recondita; dose 100 ppm): 72%
4.74^[a] | Cc1cnc(C(F)F)c(C(=S)Nc2cccc3c2CC(C(C)C)C3(C)C)c1 (stereo not drawn) [Example 67] | – | Eff. % (Puccinia recondita; dose 100 ppm): 89%; Eff. % (Uromyces appendiculatus; 100 ppm): 100%
3.94^[a] | CC1CC(C(C)(C)C)c2cccc(NC(=O)c3cccnc3C(F)F)c21 (mixture of isomers) [Example 93] | – | –
3.97^[a] | CC1(C)CC(C(Cl)Cl)c2c(NC(=O)c3cccnc3C(F)F)cccc21 (stereo not drawn) [Example 96] | – | –
4.54^[a] | CC(C)(C)CC1CC(C)(C)c2cccc(NC(=O)c3cccnc3C(F)F)c21 (stereo not drawn) [Example 95] | – | –
3.68^[a] | Cc1cnc(C(F)F)c(C(=S)Nc2cccc3c2C(C)CC32CC2)c1 (racemic) [Example 68] | – | Eff. % (Puccinia recondita; dose 100 ppm): 100%
3.26^[a] | CC1CC(C)(C)c2ccc(F)c(NC(=O)c3cccnc3C(F)F)c21 (stereo not drawn) [Example 100] | – | –
3.96^[a] | CC1c2c(cccc2NC(=O)c2ccc(Cl)nc2C(F)F)CC1(C)C (stereo not drawn) [Example 87] | – | –
3.59^[a] | Cc1cnc(C(F)F)c(C(=O)Nc2cccc3c2C(C)C(C)(C)C3)c1 (stereo not drawn) [Example 86] | – | –
4.36^[a] | CCC1(C)CC(C)c2c(NC(=O)c3ccc(Cl)nc3C(F)F)cccc21 (mixture of isomers) [Example 83] | – | Eff. % (Puccinia recondita; dose 100 ppm): 83%; Eff. % (Uromyces appendiculatus; 100 ppm): 72%
3.13^[a] | CC1CC(=C(Cl)Cl)c2cccc(NC(=O)c3cccnc3C(F)F)c21 (stereo not drawn) [Example 99] | – | –
2.96^[a] | O=C(Nc1cccc2c1C(=C(Cl)Cl)CC2)c1cccnc1C(F)F [Example 97] | – | –
3.15^[a] | CC1(C)CC(C(F)F)c2c(NC(=O)c3cccnc3C(F)F)cccc21 (stereo not drawn) [Example 94] | – | –
3.08^[a] | CC1(C)CCc2c(NC(=O)c3cccnc3C(F)F)cccc21 [Example 92] | – | –
3.00^[a] | Cc1cnc(C(F)F)c(C(=O)Nc2cccc3c2C(C(C)C)OC3(C)C)c1 (racemic) [Example 75] | – | –
3.65^[a] | Cc1cnc(C(F)F)c(C(=O)Nc2cccc3c2CC(C)(C)C3C)c1 (stereo not drawn) [Example 63] | 83% | –
2.64^[a] | CCC1OC(C)(C)c2cccc(NC(=O)c3cc(C)cnc3C(F)F)c21 (racemic) [Example 73] | – | Eff. % (Puccinia recondita; dose 100 ppm): 78%
